# Results as given in US12068729B2, “Anti-factor XII/XIIa antibodies and uses thereof” (Regeneron Pharmaceuticals, Inc., priority 2018, dated 2024).
# Key:
# [1] = system: Intrinsic and Common pathways of the coagulation cascade; assay: Activated Partial Thromboplastin Time (aPTT) in pooled normal human plasma; type: biochemical
# Text: This Example describes the inhibitory activity of selected antibodies, as determined by four functional plasma assays: 1) Activated Partial Thromboplastin Time (aPTT), 2) Prothrombin Time (PT), 3) Thrombin Generation Assay (TGA) triggered by ellagic acid and 4) TGA triggered by Tissue Factor. The aPTT test evaluates all clotting factors of the Intrinsic and Common pathways of the coagulation cascade by measuring time for a clot to form after the addition of calcium and ellagic acid, whereas the PT test evaluates all clotting factors of the Extrinsic and Common pathways of the coagulation cascade after the addition of calcium and Tissue Factor. […]
# (§1) The aPTT was determined on Diagnostica Stago STart4 Hemostasis Analyzer in the following manner: A total of 50 ul of pooled normal human plasma was added to a cuvette at 37° C. […] The measured clot time for the test article concentration was normalized to baseline (no drug) plasma clot time and plotted against log molar concentration of the test article. The results were analyzed using nonlinear regression (4-parameter logistics) with Prism 5 software (GraphPad) to obtain doubling time concentration.
# [2] = system: Extrinsic and Common pathways of the coagulation cascade; assay: Prothrombin Time (PT) in pooled normal human plasma; type: biochemical
# Text: (§2) This Example describes the inhibitory activity of selected antibodies, as determined by four functional plasma assays: 1) Activated Partial Thromboplastin Time (aPTT), 2) Prothrombin Time (PT), 3) Thrombin Generation Assay (TGA) triggered by ellagic acid and 4) TGA triggered by Tissue Factor. The aPTT test evaluates all clotting factors of the Intrinsic and Common pathways of the coagulation cascade by measuring time for a clot to form after the addition of calcium and ellagic acid, whereas the PT test evaluates all clotting factors of the Extrinsic and Common pathways of the coagulation cascade after the addition of calcium and Tissue Factor. The TGA triggered by ellagic acid measures the rate and amount of thrombin generated via the Intrinsic and Common pathways whereas TGA triggered by Tissue Factor measures the rate and amount of thrombin generated via the Extrinsic and Common pathways.
# as §1, with “PT” for “aPTT”, “manner.” for “manner:”
# [3] = system: thrombin generated via the Intrinsic and Common pathways; assay: Thrombin Generation Assay (TGA) triggered by ellagic acid; type: biochemical, human; conditions: for Concentration required for ↑ lag time by 2× / Concentration required for ↓ endogenous thrombin potential by ½ / Concentration required for ↓ thrombin peak by ½: Intrinsic Pathway Activation with Ellagic Acid
# Text: as §2
# (§3) The thrombin generation profile was determined in a Thermo Scientific Hemker Thrombinoscope in the following manner: A total of 55 ul of pooled normal human plasma was added to a well of a microplate at 37° C. Then 5 ul of a 2× serially diluted test article (antibody or small molecule inhibitor) in PBS was added to the well of the microplate and allowed to incubate for 30 min. 15 ul of APPT-XL Ellagic Acid (Thermo Scientific) was diluted in MP reagent then added to the well and allowed to incubate for 45 min. Then 15 ul of Fluo Flu Cal substrate (Diagnostica Stago) was added immediately before a continuous 90 min reading of the microplate. The measured real-time thrombin concentration values were plotted against time to yield a thrombogram profile for each concentration of the test article used.
# [4] = system: thrombin generated via the Extrinsic and Common pathways; assay: Thrombin Generation Assay (TGA) triggered by Tissue Factor; type: biochemical, human
# Text: as §2
# as §3, with “Tissue Factor PPP Reagent (Diagnostica Stago)” for “APPT-XL Ellagic Acid (Thermo Scientific)”, “was” for “was diluted in MP reagent then”
# [5] = conc. of drug required to increase clotting time by 2-fold over baseline
# [6] = dose response curves, pooled normal human plasma
# [7] = Extrinsic Pathway Activation with Tissue Factor
compound,measurement,setting,value
"COc1ccc(-n2nc(C(N)=O)c3c2C(=O)N(c2ccc(N4CCCCC4=O)cc2)CC3)cc1 [Apixaban, reference compound]",C2xt of activated Partial Thromboplastin Time (aPTT) - Intrinsic Pathway,[1]; [5],7 µM
same,effect on plasma aPTT (in words),[1]; [6],prolonged both aPTT and PT with uM concentrations
same,C2xt of Prothrombin Time (PT) - Extrinsic Pathway,[2]; [5],3.5 µM
same,effect on plasma PT (in words),[2]; [6],prolonged both aPTT and PT with uM concentrations
same,Concentration required for ↑ lag time by 2×,[3],> 500 nM
same,Concentration required for ↓ endogenous thrombin potential by ½,[3],> 500 nM
same,Concentration required for ↓ thrombin peak by ½,[3],> 500 nM
same,Concentration required for ↑ lag time by 2×,"[3]; dash cells, dose up to 500 nM",— (no effect on thrombin generation with a dose up to 500 nM)
same,Concentration required for ↓ endogenous thrombin potential by ½,"[3]; dash cells, dose up to 500 nM",— (no effect on thrombin generation with a dose up to 500 nM)
same,Concentration required for ↓ thrombin peak by ½,"[3]; dash cells, dose up to 500 nM",— (no effect on thrombin generation with a dose up to 500 nM)
same,effect on thrombin generation (in words),[3]; plasma triggered by ellagic acid,dose dependent reduction in thrombin generation
same,Concentration required for ↑ lag time by 2×,[4]; [7],250 nM
same,Concentration required for ↓ endogenous thrombin potential by ½,[4]; [7],250 nM
same,Concentration required for ↓ thrombin peak by ½,[4]; [7],62.5 nM
same,effect on thrombin generation (in words),[4]; plasma triggered by Tissue Factor,dose dependently inhibited thrombin generation
